The test system of this assay is rat model of arthritis (bone uptake). As to the kind of experiment: PET imaging in rat HKMT/IFA model of arthritis. The assay is classed as in vivo. An excerpt: Single modality BP imaging probes with ^18F were generated according to the Schemes described in FIGS. 6A-6B and FIG. 7. […] A rat (Lewis rats, 6-12 weeks of age) model of arthritis was generated by subcutaneous injection of heat killed Mycobacterium tuberculosis (strain H37Ra) suspended in incomplete Freund's adjuvant (HKMT/IFA). […] The swelling was easily identifiable by day 16 post injection, but undetectable in the animals on day 7 (FIGS. 12A-12D).
Rats were given a total of about 500 μCi (about 0.5 nmole) of freshly prepared ^18F-RIS-SFB (single modality BP conjugated imaging probe) by i.v. injection. PET imaging was conducted using a GE eXplore Vista small animal PET system.

Entries after “also recorded” stand apart in the source; their conditions may differ.

In the case of `[18F-].[Na+]` [Na^18F], the “time at which increased accumulation in bone is seen by PET” value (RA model rats, post induction) was ~18 days. For the same compound, the “detection of early bone involvement in RA by PET” value (early time point (day 7), before clinical signs) is “fails to detect the earliest signs of bone involvement in RA; also recorded: does not detect the early bone involvement in RA at day 7”.

Source of the values: patent US20160310621A1, “IMAGING PROBES, FORMULATIONS, AND USES THEREOF” (priority 2015, published 2016).
